Experimental data taken from article PMC7913925, “Design and Evaluation of a Polypeptide That Mimics the Integrin Binding Site for EDA Fibronectin to Block Profibrotic Cell Activity” (International Journal of Molecular Sciences, 2021).
Bridges are numbered along the chain shown (N, C = ends). Where no end group is shown, it is not given here.

Experiments:
VCAM1–ITGA4 interaction = test: Co-IP of VCAM1 with ITGA4; format: cell-based; conditions: 48 h, Co-IP with anti-ITGA4
Experimental: (§1) Total protein was extracted from cells in RIPA lysis buffer containing 1% protease inhibitor cocktail, 1% phenylmethylsulfonyl fluoride, and 1% sodium orthovanadate (Santa Cruz Biotechnology, Santa Cruz, CA, USA). Protein was quantified by Micro BCA Protein Assay Kit (Thermo Fisher Scientific) before 7.5% SDS-PAGE and transfer to nitrocellulose. Membranes were blocked with 5% bovine serum albumin (BSA; Sigma-Aldrich)/0.5% Tween-20 (Sigma-Aldrich)/PBS for 1 h, RT, followed by incubation with primary antibodies diluted in 1% BSA/0.1% Tween-20/PBS, overnight at 4 °C. Primary antibodies were: anti-phosphoY204/Y187 ERK1/2 (1:1000); anti-ERK1/2 (1:1000); anti-phosphoY861 FAK (1:1000); anti-FAK (1:2000). Immunoblotting for anti-GAPDH (1:2500) was used as a protein loading control. Following wash steps, membranes were incubated in goat anti-rabbit IgG H&L secondary antibody (horseradish peroxidase, HRP conjugate, […]) (Abcam; 1:5000 dilution, 1% BSA/0.1% Tween-20/PBS). Detection was performed using Immobilon reagent (Merck Millipore, Burlington, MA, USA) and imaged using a Tanon 5500 Chemiluminescent Imaging System (Tanon, Shanghai, China).
(§2) A volume of 25 µg total protein from cell lysate in nondenaturing lysis buffer containing protease inhibitors was immunoprecipitated (IP) using anti-ITGA4 antibodies linked to protein A/G sepharose beads (Abcam). […]

osteopontin (OPN) = test: Western blot total protein OPN; format: cell-based; conditions: 48 h, TGF-β1+AF38Pep
[1] = tested on: mouse NIH/3T3 dermal fibroblast cells, α-SMA mRNA; test: α-SMA mRNA expression (qRT-PCR) in TGF-β1-treated NIH/3T3; format: cell-based
Experimental: HFL1 cells were cultured in Kaighn’s modified Ham’s F-12 (F-12K) medium (Sigma-Aldrich) containing NaHCO3 and HEPES buffered to pH 7. Cells were grown to confluence in T75 culture flasks in the presence of 10% fetal bovine serum (FBS; Gibco, Thermo Fisher Scientific, Waltham, MA, USA). HFL1 cells were subcultured using 0.05% trypsin at a ratio of 1:3. NIH/3T3 cells were cultured in Dulbecco’s Modified Eagle Medium (DMEM; HyClone, Thermo Fisher Scientific) containing 100 U/mL penicillin and 100 μg/mL streptomycin. Cells were grown to confluence in T75 culture flasks in the presence of 10% FBS. NIH/3T3 cells were subcultured using 0.05% trypsin/EDTA at a ratio of 1:3. All cells were maintained at 37 °C and 5% CO2, and growth medium was replenished every 3 days until experimentation. Cells were growth-arrested in serum-free medium for 48 h before experiments, and all experiments were performed under serum-free conditions using cells between passages 3 and 8.
(§3) Reverse transcription (RT) and real-time quantitative PCR (qRT-PCR) were used to assess ACTA2/Acta2, Col1a1, Col3a1, Fn1, Eda-Fn1, Mmp9, Tgfb1, Ltbp1, Hic5, and Mrtfa mRNA expressions. Custom PCR primers were designed in-house (Table 2) and then synthesized by BGI (Beijing, China). Cells were grown in 6-well culture plates and washed with phosphate buffered saline (PBS) before lysis with TRIzon Reagent (CWBio, Beijing, China) and total RNA purification according to the manufacturer’s protocol. Reverse transcription was carried using the TransScript First-Strand cDNA Synthesis SuperMix kit according to the manufacturer’s protocol (TransGen, Beijing, China), using the random primer method for the initiation of cDNA synthesis. Nuclease-free H2O replaced the RNA sample to serve as a negative control for the reverse transcription reaction. For qRT-PCR, 10 µL 2× TransStart Top Green qPCR SuperMix was added to each well of a 96-well PCR plate containing 0.4 µL forward primer, 0.4 µL reverse primer, […], and nuclease-free water to a total volume of 20 µL. […]

pro-MMP9 = test: Gelatinase zymography pro-MMP9; format: cell-based, mouse; conditions: 48 h, TGF-β1 10 ng/mL, AF38Pep 10 µg/mL, conditioned medium
Experimental: Conditioned media were collected from cells incubated with serum-free medium (SFM) alone, SFM containing 10 ng/mL TGF-β1, SFM containing 10 µg/mL AF38Pep, or SFM containing both 10 ng/mL TGF-β1 and 10 µg/mL AF38Pep. Conditioned medium was concentrated 10× by filtrating spin columns (Amicon Ultra-4 10 kDa MWCO, Merck Millipore) and protein was quantified by Micro BCA Protein Assay Kit (Thermo Fisher Scientific). A 1.5 mm thick 10% nonreducing acrylamide gel containing gelatin was prepared and 10 µg of sample in 5 × nonreducing buffer was loaded into the gel lanes. The gel was run at 100 V until the protein entered the stacking gel layer, then the voltage was increased to 150 V until the marker achieved resolved band separation. The gels were then washed twice for 30 min using wash buffer to remove SDS and renature the enzymes. Gels were further rinsed for 5–10 min in incubation buffer at 37 °C with agitation to activate the gelatinase reaction. Fresh incubation buffer was added, and the gels were incubated overnight at 37 °C. Gels were stained with staining solution containing Coomassie blue for between 30 min to 1 h, before rinsing with ddH2O and subsequent incubation with de-stain solution until bands could be observed. The gels were transferred to 2% acetic acid and rehydrated overnight for imaging by scanner.

Col1a1 mRNA = test: qRT-PCR Col1a1 mRNA; format: cell-based, mouse
Experimental: as §3, with “µL. The qRT-PCR reaction was completed using a CFX96 Real-Time PCR Detection System (Bio-Rad Laboratories, Hercules, CA, USA). Amplification used the following parameters: 94 °C for 30 s, followed by 40 cycles of 94 °C for 5 s, 55 °C for 15 s, 72 °C for 10 s, and then a dissociation stage (melt-curve).” for “µL.”

[2] = tested on: FAK in NIH/3T3 fibroblasts; test: Western blot FAK phosphorylation and total protein; format: cell-based, mouse; conditions: TGF-β1 10 ng/mL, AF38Pep 10 µg/mL
Experimental: as §1

Col3a1 mRNA = test: qRT-PCR Col3a1 mRNA; format: cell-based, mouse
Experimental: as §3, with “µL. The qRT-PCR reaction was completed using a CFX96 Real-Time PCR Detection System (Bio-Rad Laboratories, Hercules, CA, USA). Amplification used the following parameters: 94 °C for 30 s, followed by 40 cycles of 94 °C for 5 s, 55 °C for 15 s, 72 °C for 10 s, and then a dissociation stage (melt-curve).” for “µL.”

OPN–ITGA4 interaction = test: Co-IP of OPN with ITGA4; format: cell-based; conditions: 48 h, Co-IP with anti-ITGA4
Experimental: as §1, §2

pro-MMP9 gelatinase activity (pro-MMP9): suppressed activity levels | OPN–ITGA4 binding (OPN–ITGA4 interaction): did not influence OPN–ITGA4 binding
Sequence: VMPYISTTPAKPCTSENCGNSWYGGFKSKNENKIYFIN (disulfide 13-18 (inferred)) [AF38Pep]
VCAM1–ITGA4 binding (VCAM1–ITGA4 interaction): unaffected by cell treatments and remained at basal levels | OPN protein expression (osteopontin (OPN)): significantly attenuated | attenuation of TGF-β1-induced α-SMA mRNA ([1]; NIH/3T3, 48 h, all concentrations tested (log10 dilution range)): significantly attenuated gene induction at 48 h in all concentrations tested | attenuation of TGF-β1-induced α-SMA mRNA ([1]; NIH/3T3, 72 h, 10 µg/mL): only AF38Pep treatment at a concentration of 10 µg/mL was sufficient to significantly attenuate the α-SMA mRNA upregulation | attenuation of TGF-β1-induced α-SMA mRNA ([1]; NIH/3T3, 72 h, 0.1–1 µg/mL): not able to effectively inhibit the differentiation response over the 72 h duration of treatment | collagen type I mRNA expression (Col1a1 mRNA; 72 h, TGF-β1 + AF38Pep): all inhibited | collagen type I mRNA expression (Col1a1 mRNA; by 48 h, vs TGF-β1-only): significant attenuation | FAK phosphorylation ([2]; 1 h): significantly suppressed | FAK phosphorylation ([2]; 12 h): significantly less activation | total FAK protein ([2]; 12 h): marginally reduced | collagen type III mRNA expression (Col3a1 mRNA; 72 h, TGF-β1 + AF38Pep): all inhibited | collagen type III mRNA expression (Col3a1 mRNA; by 48 h, vs TGF-β1-only): significant attenuation
